Consider one compound from PMC10636063, “Progesterone activation of β1-containing BK channels involves two binding sites” (Nature Communications, 2023).

The subject of assay [1] is de-endothelialized MCA segments of KCNMB1-/- mice permeabilized with β1 constructs. The experiment in a line: Cerebral artery diameter in vitro, KCNMB1-/- MCA permeabilized with β1 constructs. On the set-up: species or system mouse. Conditions: 10 µM; W87F, Y32V or W163I constructs. The text has this:
Eight-12 week-old C57BL/6J and KCNMB1^−/− on C57BL/6 background mice of both sexes were deeply anesthetized with isoflurane via inhalation in a tightly sealed jar. […] For de-endothelialized records, the endothelium was removed by passing an air bubble into the vessel lumen for 90 s[30]. This method has been consistently used by our group and validated using endothelium-dependent versus endothelium-independent vasodilators[16],[26]. Arteries were cannulated as previously described by our group[26],[40]. […] PSS was continuously bubbled with an O2/CO2/N2 (21/5/74%) gas mixture and maintained at 35–37 °C. The artery external wall diameter was measured using the automatic edge-detection function of lonWizard software (lonOptix) via Sanyo VCB-3512T camera (Sanyo Electric Co.). Arteries were first incubated at an intravascular pressure of 10 mm Hg for 10 min. Then intravascular pressure was increased to 60 mmHg and held steady throughout the experiment to induce myogenic tone development and maintenance[19],[30],[51]. […] To determine arterial viability, arterial contractility was probed with a high KCl solution at the end of each experiment. […] Like PSS, the high-KCl solution was continuously bubbled with O2/CO2/N2 (21/5/74%) gas mixture and maintained at 35–37 °C. […]

For assay [2], the target named is T1, cbv1+β1W87F (Rattus norvegicus, UniProt P97678, W87F).
T1 construct: made in house; host or cells: CHO cells, transient transfection; sucrose-gradient membrane preparation
T1 sequence (P97678 whole entry W87F): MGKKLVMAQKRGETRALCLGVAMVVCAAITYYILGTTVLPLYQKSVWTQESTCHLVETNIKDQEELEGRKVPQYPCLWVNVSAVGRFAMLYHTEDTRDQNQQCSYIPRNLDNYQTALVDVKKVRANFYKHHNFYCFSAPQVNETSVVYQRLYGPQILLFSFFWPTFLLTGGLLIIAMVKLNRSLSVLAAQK
T1 sequence (Q62976 1-1148 isoform Q62976-2 partner): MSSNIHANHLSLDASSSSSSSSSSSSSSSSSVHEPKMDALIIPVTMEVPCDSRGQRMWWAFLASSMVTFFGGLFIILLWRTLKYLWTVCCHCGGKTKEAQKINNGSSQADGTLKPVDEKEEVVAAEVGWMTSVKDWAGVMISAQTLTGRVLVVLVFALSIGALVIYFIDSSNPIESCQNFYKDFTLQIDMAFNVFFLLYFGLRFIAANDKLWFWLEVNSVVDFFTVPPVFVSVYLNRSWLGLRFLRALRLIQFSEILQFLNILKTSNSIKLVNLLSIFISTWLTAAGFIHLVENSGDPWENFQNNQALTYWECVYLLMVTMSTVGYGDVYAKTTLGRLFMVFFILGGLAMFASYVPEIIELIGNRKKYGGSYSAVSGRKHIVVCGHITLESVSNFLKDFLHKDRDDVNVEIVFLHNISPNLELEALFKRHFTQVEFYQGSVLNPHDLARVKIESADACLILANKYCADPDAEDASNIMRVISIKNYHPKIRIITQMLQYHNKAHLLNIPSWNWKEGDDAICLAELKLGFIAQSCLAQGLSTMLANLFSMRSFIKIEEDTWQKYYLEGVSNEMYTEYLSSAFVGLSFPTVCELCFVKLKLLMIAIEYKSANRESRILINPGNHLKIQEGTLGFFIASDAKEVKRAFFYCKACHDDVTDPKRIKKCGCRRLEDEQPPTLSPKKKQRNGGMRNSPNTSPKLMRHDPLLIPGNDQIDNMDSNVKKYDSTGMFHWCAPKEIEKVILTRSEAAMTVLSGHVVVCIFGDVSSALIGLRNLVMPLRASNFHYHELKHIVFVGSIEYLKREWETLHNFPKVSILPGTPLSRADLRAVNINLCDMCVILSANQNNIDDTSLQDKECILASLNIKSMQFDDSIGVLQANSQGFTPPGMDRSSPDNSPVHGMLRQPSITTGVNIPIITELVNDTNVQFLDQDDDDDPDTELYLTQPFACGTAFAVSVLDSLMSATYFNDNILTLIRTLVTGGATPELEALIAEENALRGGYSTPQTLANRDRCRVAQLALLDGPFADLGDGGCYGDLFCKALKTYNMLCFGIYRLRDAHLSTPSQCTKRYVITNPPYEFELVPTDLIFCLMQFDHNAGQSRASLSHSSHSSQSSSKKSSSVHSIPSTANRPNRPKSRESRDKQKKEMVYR
Put plainly: Channel activity (NPo) in POPE/POPS bilayers, cbv1+β1W87F. Type of assay: biochemical. The source says: BK channel-forming slo1 cDNA (cbv1 isoform; AY330293) was cloned from rat cerebral artery SM cells, and inserted into pcDNA3.1 vector as described. BK β1 cDNA (KCNMB1 product; NP_011452; FJ154955) were isolated from rat cerebral artery SM cells and cloned as described. β4 cDNA (KCNMB4; NP_055320; AY028605) were generously provided by Dr. Ligia Toro. CHO cells were transiently transfected with cbv1 ± β1-, or β4-carrying pcDNA3.1 using X-tremeGENE HP (Sigma-Aldrich). […]
Proteins for electrophysiological recordings in artificial lipid bilayers remained untagged. […] BK channel-mediated ionic current was recorded in planar lipid bilayers consisting of a POPE:POPS 3:1 (w/w) mixture. […]
Patch-clamp and bilayer data were analyzed using Clampfit 10.7 software (Molecular Devices). […] Drug-induced NPo changes were determined by comparing baseline NPo (i.e., NPo with the patch/cell perfused with bath solution) to the NPo from the same patch/cell exposed to the agent under study (DMSO/PROG/oxime) dissolved in bath solution. NPo and mean open time values were automatically calculated using Clampfit 10.7, the latter using a 50% threshold detection event.

The subject of assay [3] is BK β4 subunit (KCNMB4 product). The experiment in a line: Thermal unfolding (MST) of purified wt β4. On the set-up: delta (Δ) of onset to inflection point: unit not given here. The format is binding. The source says:
BK channel-forming slo1 cDNA (cbv1 isoform; AY330293) was cloned from rat cerebral artery SM cells, and inserted into pcDNA3.1 vector as described. BK β1 cDNA (KCNMB1 product; NP_011452; FJ154955) were isolated from rat cerebral artery SM cells and cloned as described. β4 cDNA (KCNMB4; NP_055320; AY028605) were generously provided by Dr. Ligia Toro. CHO cells were transiently transfected with cbv1 ± β1-, or β4-carrying pcDNA3.1 using X-tremeGENE HP (Sigma-Aldrich). Mutations to β1/4 cDNAs were conducted by Genscript, with sequences being confirmed to be >99% identical to KCNMB1 product; NP_011452 or β4 KCNMB4; NP_055320; respectively. β1/4 and mutant constructs were flag-tagged (DYKDDDDK-tag) by Genscript services for subsequent immunoprecipitation and use in microscale thermophoresis studies.
Wt β1, wt β4 and mutant constructs were purified by immunoprecipitation using Dynabeads Protein G Kit (10007D by Invitrogen) and following the manufacturer’s instructions. […] The unfolding profile of a protein is a plot of its fluorescence signal against temperature. […] During the heating process, fluorescence is recorded at 330 and 350 nm. The resulting fluorescence ratio change is then analyzed for onset and inflection points. The temperature of onset and inflection is determined using built-in analysis function in Nanotemper PR.therm-control software. […]

“And” between values parts separate entries of the source, which are not always exact repeats. Identical values can stand only once.

`CC(=O)[C@H]1CC[C@H]2[C@@H]3CCC4=CC(=O)CC[C@]4(C)[C@H]3CC[C@]12C` [PROG, Progesterone]: the “vasoactive response of MCA segments” value in assay [1] is “failed to dilate MCA segments”. For the same compound, the “action on channel activity (NPo)” value in assay [2] (10 µM, vs vehicle) was “effectively abolished PROG action”. Further, in assay [2] (cbv1+w87F prog, time 1 min (normalisation reference)), the “normalized NPo, time course Fig 4E” value is given as 1. For the same compound, the “delta (Δ) of onset to inflection point” value in assay [3] (10 μM PROG, individual records (Fig 1C)) is 24.8 and 1.81 and 4.188 and 7.2 and 3.495 and 5.4. Also, in assay [3] (4–10 μM), the “effect on thermal unfolding / binding” value is “exerted a similar effect on the thermal unfolding of β4”.
